{"source": "patent US11844801B2", "about": "“Oral compositions of MK2 pathway inhibitor for treatment of immune conditions” (priority 2020, dated 2023)", "key": {"[1]": {"assay": "13-week oral administration non-clinical safety study, rat", "type": "in vivo", "details": "for Cmax / AUC(0-t): 30 mg/kg/day oral; for AUC(0-t): read-out: AUC0-24", "experimental": "Study Design. […] Rats were administered 0 (vehicle), 3, 10 and 30 mg/kg/day, and Mini-pigs were administered 0 (vehicle) 10, 30 and 60 mg/kg/day"}, "[2]": {"test_system": "TNF-α, IL-1β, IL-6, and IL-8", "assay": "Phase 2a RA study: ex vivo LPS-stimulated cytokines in patient blood", "set-up": "species or system human", "details": "50 mg BID, 12 weeks"}, "[3]": {"test_system": "IP10, IFNγ, IL-6, IL-8 and TNF-α", "assay": "Poly(I:C) (TLR3) stimulated cytokines and chemokines in human whole blood", "type": "cell-based", "details": "poly(I:C) 100 μg/mL, 24 hours", "experimental": "Human whole blood assays were performed as described above with the exceptions listed below. […] Compounds were serially diluted in 100% DMSO (Sigma-Aldrich, D2650) followed by a 25× dilution into DMEM/10% FBS (Gibco, 11965/26140). After the one-hour incubation with the compounds or vehicle, 20 μL of poly(I:C) (InvivoGen, HMW, tlrl-pic), in DPBS (Gibco, 14190-136) was added for a final concentration of 100 μg/mL to each well except for the no stimulus wells. After twenty-four hours of incubation with poly(I:C), plasma was harvested and assayed for IP10, IFNγ, IL-6, IL-8 and TNF-α using Meso Scale Discovery Technology V-plex human cytokine kits according to the kit protocol."}, "IL-8": {"test_system": "IL-8", "assay": "IL-1β stimulated IL-8 production in human whole blood", "type": "cell-based", "experimental": "Compounds were serially diluted in 100% DMSO (Sigma-Aldrich, D2650) followed by a 10× dilution into RPMI (Gibco, 11875). After the one-hour incubation with the compounds or vehicle, 2 μL of IL-1β (R&D, 201-LB-010) in RPMI (Gibco, 11875) was added for a final concentration of 0.5 μg/mL to each well except for the no stimulus wells. After six hours of incubation with IL-1β, plasma was harvested and assayed for TNF-α, IL-6 and IL-8 using Meso Scale Discovery Technology V-plex human cytokine kits according to the kit protocol."}, "IL-6": {"test_system": "IL-6", "assay": "Ex vivo LPS-stimulated IL-6 in blood of dosed healthy subjects, PK/PD inhibitory Emax model", "set-up": "species or system human", "experimental": "Blood samples of 10 mL were collected for PD analysis. For the SAD cohorts, blood was collected before dosing and 1, 12, and 24 hours after dosing. For the MAD cohorts, on day 1 blood was collected before the morning dose and 4 and 12 hours after the morning dose (prior to the evening dose); on day 7, blood was collected before the morning dose and 4 and 12 hours after the morning dose.\nAdditional details of the assays for analyzing p-HSP27 and cytokines are included in the Supplementary Information.\nPharmacodynamics. PD data analysis was conducted using Microsoft Excel 2010 (Microsoft, Redmond, WA), Meso Scale Discovery Workbench® analysis software (Rockville, MD), and Phoenix WinNonlin, version 8.2.\nSample Preparation for Cytokine Analysis. For each sample, 180 μL aliquots were transferred into 7 wells of a round bottom 96 well tissue culture polystyrene low evaporation plate. […] No outer wells on the plates were used and all wells surrounding the samples contained 200 μL of phosphate buffered saline.\nDMSO was added to all wells in groups ‘A’ and ‘C’ to a final concentration of 0.1% ([…] of a 2% DMSO solution in DMEM containing 10% FBS and 1% penicillin/streptomycin/glutamine). […] Samples were mixed gently for 30 seconds on a plate shaker using pin tools, then placed in an incubator at 37° C./5% CO2 for 1 hour.\nSamples in groups ‘A’ and ‘B’ were stimulated with lipopolysaccharide at a final concentration of 100 ng/mL. A stock solution of lipopolysaccharide at 1 mg/mL in DMEM containing 10% FBS and 1% penicillin/streptomycin was diluted to […] in DMEM containing 10% FBS and 1% penicillin/streptomycin, and […] of this working solution was added per well of blood for all samples in groups ‘A’ and ‘B’. […] of DMEM containing 10% FBS only was added per well of blood for all samples in group ‘C’ (unstimulated samples). Samples were mixed gently for 30 seconds on a plate shaker using pin tools, then placed in an incubator at 37° C./5% CO2 for 5 hours.\nFollowing the incubation, the plates were removed from the incubator and sealed with adhesive clear plate seals. The plates were then centrifuged for 10 minutes at 1800×g at room temperature. […] of plasma was removed from each well and transferred to a 96-well polypropylene round bottom master plate, which was then sealed and frozen at −80° C. until all samples from the respective cohort were generated. Once all samples from a given cohort were generated, the samples were analyzed for cytokine (TNF-α, IL-1b, IL-6, and IL-8) production using Meso Scale Discovery Technology.\nAnalysis of Cytokine Levels Using Meso Scale Discovery Technology. All lipopolysaccharide plasma samples were analyzed for cytokine production with a V-Plex Human Proinflammatory Panel II (4-Plex) Kit from Meso Scale Discovery (Rockville, MD). The master plates containing the plasma samples were thawed on ice, and a daughter plate consisting of a 25-fold dilution of each plasma sample (3 μL of plasma plus 72 μL of Meso Scale Discovery Diluent 2) was generated for each master plate. The diluted plasma samples from the daughter plates were used in the cytokine analysis. The Meso Scale Discovery 4-plex plates were washed 3 times with 150 μL/well of wash buffer (1×KPL phosphate buffered saline with Tween 20 from SeraCare [Milford, MA]). Prepared calibrators and the samples from the daughter plates were added to the washed Meso Scale Discovery 4-plex plates at 50 μL/well. The 4-plex plates were sealed and shaken overnight at 4° C.\nAfter the overnight incubation, the samples were removed by decanting. The 4-plex plates were then washed 3 times with 150 μL/well of wash buffer. […]"}, "TNF-α": {"test_system": "TNF-α", "assay": "Differentiated U937 cell LPS stimulated cytokine assay (TNF-α)", "type": "cell-based", "details": "Homo sapiens, U-937, U937 cells, 100 ng/mL, 4 hr", "experimental": "U937 Cell differentiation and LPS stimulated cytokine assay: The U937 human pre-monocytic cell line (ATCC, CRL-1593.2) was grown in complete media: RPMI 1640 (Gibco, A10491) with penicillin-streptomycin (10 U/mL)-glutamine (2 mM) (Gibco, 10378016) and 10% FBS(Gibco, 26140-079). Cells were differentiated to a monocyte/macrophage phenotype with the addition of PMA (Sigma-Aldrich, P1585) (20 ng/mL, 24 hours), washed with DPBS (Gibco, 14190-136) and incubated in complete media for 24 hours at 37° C., 5% CO2. Following recovery, the cells were scraped, counted, re-plated in complete media in accordance with the experimental design and incubated for an additional 24 hours at 37° C., 5% CO2 prior to stimulation with LPS (Sigma-Aldrich, L2630) as described below. Differentiated U937 cells were pretreated for one hour in the presence of serially diluted compound or vehicle then stimulated with LPS at a final concentration of 100 ng/mL for four hours. Culture media was then collected for determination of cytokine levels using Meso Scale Technology."}, "[4]": {"details": "female, rat, in vivo, study day 88, females"}, "[5]": {"details": "male, rat, in vivo, study day 88, males"}}, "note": "Entries after “also recorded” stand apart in the source; their conditions may differ. Like-named read-outs stand apart in the source and are kept apart here.", "data": [{"smiles": "Cc1cnc(-c2ccnc(C(C)(C)O)n2)cc1-n1c(C)cc(OCc2ncc(F)cc2F)c(Cl)c1=O", "note": "(single isomer, unassigned) [ATI-450, 3-chloro-4-((3,5-difluoropyridin-2-yl)methoxy)-2′-(2-(2-hydroxypropan-2-yl)pyrimidin-4-yl)-5′,6-dimethyl-2H-[1,4′-bipyridin]-2-one]", "values": [{"measurement": "non adverse finding, myocytes", "setting": "[1]; 13-week oral", "value": "Minimal to moderate degeneration of myocytes at all doses, including control animals"}, {"measurement": "mortality", "setting": "[1]; 13-week oral, up to 30 mg/kg/day", "value": "No study drug-related mortality was observed"}, {"measurement": "recovery of rat non adverse findings", "setting": "[1]; after 13-week dosing", "value": "complete recovery following 28-day non-dosing period"}, {"measurement": "Cmax", "setting": "[1]; [4]", "value": 5440, "unit": "ng/mL"}, {"measurement": "AUC(0-t)", "setting": "[1]; [4]", "value": 43500, "unit": "ng·h/mL"}, {"measurement": "Cmax", "setting": "[1]; [5]", "value": 3260, "unit": "ng/mL"}, {"measurement": "AUC(0-t)", "setting": "[1]; [5]", "value": 36400, "unit": "ng·h/mL"}, {"measurement": "NOAEL at 13 weeks", "setting": "[1]; rat, in vivo, 13-week oral, read-out: no-observed adverse effect level (NOAEL)", "value": 30, "unit": "mg/kg/day"}, {"measurement": "non adverse finding, nasal area", "setting": "[1]; several animals at mid and high dose", "value": "minimal ulceration/mixed cell inflammation"}, {"measurement": "ex vivo stimulated cytokines in RA patient blood", "setting": "[2]", "value": "sustained inhibition of proinflammatory cytokines; also recorded: marked and durable inhibition"}, {"measurement": "IC50", "setting": "[3]", "value": "10 to 100", "unit": "nM"}, {"measurement": "IC80", "setting": "IL-8", "value": "0.04 ± 0.012", "unit": "µg/mL"}, {"measurement": "Cmax (Multiple of IC80)", "setting": "IL-6; 50 mg BID, day 7", "value": 0.3, "unit": "x"}, {"measurement": "Ctrough (Multiple of IC80)", "setting": "IL-6; 50 mg BID, day 7", "value": 0.1, "unit": "x"}, {"measurement": "inhibition at 50 mg", "setting": "IL-6; Homo sapiens, 50 mg BID, part of the dosing interval", "value": "> 50", "unit": "%"}, {"measurement": "IC80", "setting": "IL-6; Homo sapiens, calculated from IC50, combined SAD and MAD data, read-out: IC80, plasma concentration at 80% of maximal inhibition", "value": 0.748, "unit": "µg/mL"}, {"measurement": "IC50", "setting": "IL-6; Homo sapiens, inhibitory Emax model, combined SAD and MAD data, read-out: IC50, plasma concentration at half maximal inhibition", "value": 0.187, "unit": "µg/mL"}, {"measurement": "IC80, plasma concentration at 80% of maximal inhibition", "setting": "IL-6; calculated from IC50, combined SAD and MAD data", "value": 0.7478, "unit": "µg/mL"}, {"measurement": "IC50", "setting": "TNF-α", "value": "1.55 ± 0.35", "unit": "nM"}]}]}
